We go through 4 compounds from patent US20250222045A1, “BIFIDOBACTERIUM LONGUM SUBSP. INFANTIS, MICROBIAL AGENT AND USE THEREOF” (GUANGZHOU JIYAN COSMETICS TECHNOLOGY CO., LTD., priority 2024, published 2025).

SMILES strings stand for the structures.

The test system of one assay is suckling pig skin. Description: Exfoliation on excised suckling pig skin (Franz cell), total protein of detached keratinocytes. To be noted: 50 μL, 24 h, 32 °C. On the procedure: <1> Formulation of cleaning solution (0.1% Triton X-100): 0.1 mL of Triton X-100 was weighed and dissolved in 100 mL of PBS to formulate 0.1% Triton X-100 solution. <2> Formulation of sodium hydroxide solution (12 M): 4.8 g of sodium hydroxide solid was weighed, and added with deionized water to make up to 10 mL, and formulate 12 M sodium hydroxide solution. <1> After being thawed and cleaned, pig skin was fixed between a supply chamber and a receiving chamber of Franz cell, with stratum corneum of the skin facing the supply chamber, and a dermal side facing the receiving chamber. Into the receiving chamber, 7.0 mL of a receiving liquid was added. After suckling pig skin was stretched and fixed well, into the receiving chamber, 1.5 mL of the receiving liquid (PBS) was added through a sample collector, and air was exhausted, so as to make the dermis of the skin be in close contact with the receiving liquid. <2> Samples (as shown in TABLE 24) were added to the skin surface in the supply chamber, where 50 μL of the samples were added to the surface of the pig skin (a PBS buffer solution was added to the surface of the control group as blank control). The samples were evenly spread radially from a central part of the skin towards an edge, and an exposed area of the samples was 3.14 cm^2. Each sample had three parallel replicates. […] Keratinocytes in the cleaning solution were precipitated, supernatant was discarded, and precipitate was re-suspended with 0.5 mL of deionized water. <2> Into the re-suspended liquid, 25 μL of a sodium hydroxide (12 M) solution was added, the keratinocytes were lysed for 30 min in a boiling water bath, and 25 μL of concentrated hydrochloric acid (12 M) was added to neutralize lysis solution. <3> The total protein content was detected according to instructions of a BCA protein assay kit. […] The total protein content in the lysis solution was directly proportional to the quantity of detached keratinocytes. […] GraphPad Prism was applied for plotting, and results were expressed as Mean±SD. Comparison between the groups was statistically analyzed using t-test. […]

Another assay deals with CPD. Description: DNA damage repair on UVB-irradiated 3D epidermal skin model, CPD immunohistochemistry. Format: cell-based. As to conditions: Filtrate 5%, Lysate 5%, Filtrate + lysate 5%, Retinol 0.1%, Bifida ferment lysate 5%; for CPD Positive cell Rate (%): BC 0.00%, NC 72.14%, smaller values are better; for CPD fluorescence intensity, Down-regulation Rate: vs NC. On the procedure: <1> According to test groups, models were transferred into 6-well plates (added with 0.9 mL of an EpiGrowth culture solution of corresponding groups in advance), and numbers of the test groups were marked on the 6-well plates.
<2> UVB irradiation (a radiation dosage was 600 mJ/cm^2) was performed on the groups requiring UVB irradiation according to the test groups (as shown in TABLE 40). After the irradiation, a sample working solution was evenly distributed on surfaces of the models, and continued to be incubated in a CO2 incubator (37° C., 5% CO2) for 24 h.
<3> After incubation was finished, test substances remaining on surfaces of the models were cleaned with sterile PBS, and residual liquid inside and outside the models was wiped off with a sterile cotton swab.
The models for detection were fixed using 4% paraformaldehyde. After 24 h of fixation, immunohistochemical detection was performed, photographs were taken under a microscope and observed, and pictures were collected and analyzed.
Inhibition rate/down-regulation rate (%)=(negative control group−sample)/negative control group×100%
GraphPad Prism was applied for plotting, and results were expressed as Mean±SD. Comparison between the groups was statistically analyzed using t-test. Statistical analysis was two-tailed. P<0.05 is considered to have a significant difference, and P<0.01 is considered to have an extremely significant difference.
(1) CPD: When a body is exposed to exogenous UV radiation, DNA damage may occur, and this damage may induce body aging. If such DNA damage is not repaired in time, symptoms such as aging of the body may occur.

Assay [1] concerns 3D epidermal skin model (EpiKuits®). Description: Epidermal atrophy on UVB-irradiated 3D epidermal skin model, tissue morphology H&E, sunburn cells. It counts as cell-based. As to conditions: Filtrate 5%, Lysate 5%, Filtrate + lysate 5%, Retinol 0.1%, Bifida ferment lysate 5%; for Sunburn cells: EpiKutis 3D epidermal model, UVB 600 mJ/cm^2, then 24 h, H&E, BC 0, NC 10, WY14643 50 μM. On the procedure:
[table] <1> According to test groups, models were transferred into 6-well plates (added with 0.9 mL of an EpiGrowth culture solution of corresponding groups in advance), and numbers of the test groups were marked on the 6-well plates. <2> UVB irradiation (a radiation dosage was 600 mJ/cm^2) was performed on the groups requiring UVB irradiation according to the test groups (as shown in TABLE 40). […] <3> After incubation was finished, test substances remaining on surfaces of the models were cleaned with sterile PBS, and residual liquid inside and outside the models was wiped off with a sterile cotton swab. The models for detection of tissue morphology were fixed using 4% paraformaldehyde. After 24 h of fixation, H&E staining detection was performed, photographs were taken under a microscope and observed, and pictures were collected and analyzed. Inhibition rate/down-regulation rate (%)=(negative control group−sample)/negative control group×100% GraphPad Prism was applied for plotting, and results were expressed as Mean±SD. Comparison between the groups was statistically analyzed using t-test. Statistical analysis was two-tailed. P<0.05 is considered to have a significant difference, and P<0.01 is considered to have an extremely significant difference. (2) Epidermal atrophy: Tissue morphology is physiological structure analysis of appearance of tissues after HE staining. The ability of the test substance to resist UVB can be evaluated by analyzing thickness changes of epidermis and growth of four layers of cells on the surface after use of the test substance.

Another assay concerns collagen fiber. Description: Excised skin tissues, combined UVA and UVB irradiation: collagen fiber (Masson staining). As to conditions: ex vivo skin, 0.1%. On the procedure: (§1) Tissue treatment: Freshly obtained skin tissues were immersed into 75% alcohol to be cleaned for 30 s, and then cleaned in a sterile PBS buffer solution for three times. After the cleaning was finished, the skin was cut into tissue blocks of 24±2 mm^2, with the epidermis facing upwards and the dermis facing downwards, and put into culture moulds; and then the culture moulds were transferred into 6-well plates, with each well being added with 3.7 mL of the culture solution, and cultured in the CO2 incubator (37° C., 5% CO2), with the solution being changed every day.
Dosing: After the excised skin tissues were cultured for 2 days, irradiation and dosing were started with reference to test groups and corresponding treatment conditions in the table. Irradiation dosages were UVA (30 J/cm^2) and UVB (50 mJ/cm^2). The irradiation was continuously performed for 4 days. […]
Detection of collagen fiber: the skin tissues having undergone the dosing were fixed using 4% paraformaldehyde. […] Slicing result was recovered, photographed using a microscope, and analyzed using Image-Pro Plus image processing software. […]
(§2) Statistical analysis of results: GraphPad Prism was applied for plotting, and results were expressed as Mean±SD. Comparison between the groups was statistically analyzed using t-test. […]

The subject of another assay is hyaluronic acid. Description: Excised skin tissues, combined UVA and UVB irradiation: hyaluronic acid (immunofluorescence). As to conditions: ex vivo skin, 0.1%. On the procedure:
as §1
(§3) Dosing: After the excised skin tissues were cultured for 2 days, irradiation and dosing were started with reference to test groups and corresponding treatment conditions in the table. Irradiation dosages were UVA (30 J/cm^2) and UVB (50 mJ/cm^2). The irradiation was continuously performed for 4 days. After each time of irradiation was completed, the culture solution was replaced with a fresh culture solution, and a dosing treatment was performed. The positive control (VC+VE) was dosed below a liquid surface, and the test sample was does on a surface, with each group being in triplicate. […]
as §2

The test system of another assay is elastin. Description: Excised skin tissues, combined UVA and UVB irradiation: elastin (Victoria Blue staining). To be noted: ex vivo skin, 0.1%. On the procedure: as §1, §3, §2
For the next assay, the system named is type III collagen. Description: Excised skin tissues, combined UVA and UVB irradiation: type III collagen (IHC). As to conditions: ex vivo skin, 0.1%. On the procedure: as §1, §3, §2
The test system of the next assay is type IV collagen. Description: Excised skin tissues, combined UVA and UVB irradiation: type IV collagen (IHC). To be noted: ex vivo skin, 0.1%. On the procedure: as §1, §3, §2
For the next assay, the system named is type XVII collagen. Description: Excised skin tissues, combined UVA and UVB irradiation: type XVII collagen (IHC). As to conditions: ex vivo skin, 0.1%. On the procedure:
as §1, §3, §2

Setting [2] is: BC 0.326, Filtrate 3%, Mandelic acid 5%, Salicylic acid 2%.
[3] abbreviates: 30 J/cm^2 UVA + 50 mJ/cm^2 UVB, IHC.

In the case of `O=C(O)C(O)c1ccccc1` (centres unmarked) [Mandelic acid], the “Protein Concentration Mean (exfoliated keratinocytes)” value with suckling pig skin (setting [2]) is 0.448 mg/mL.

On to `CC1=C(/C=C/C(C)=C/C=C/C(C)=C/CO)C(C)(C)CCC1` [Retinol], for which the “CPD Positive cell Rate (%)” value came to 58.31% in the assay on CPD (EpiKutis 3D epidermal model, UVB 600 mJ/cm^2, then 24 h, PC WY14643 50 μM) and 58.31% with CPD (EpiKutis 3D epidermal model, UVB 600 mJ/cm^2, then 24 h, PC WY14643 50 μM, listed as retinol). Further, in the assay on CPD (EpiKutis 3D epidermal model, UVB 600 mJ/cm^2, then 24 h, NC 227349.69, PC WY14643 50 μM), the “CPD fluorescence intensity, IOD Mean” value is 20503.43. The “CPD fluorescence intensity, Down-regulation Rate” value in the assay on CPD and with CPD (listed as retinol) was 90.98% each time. In addition, the Sunburn cells in [1] was found to be 0. Further, the “Sunburn cells, Inhibition Rate” value in [1] (vs NC) is listed as 100%. Moreover, the “Collagen fiber Relative Area Mean” value in the assay on collagen fiber (30 J/cm^2 UVA + 50 mJ/cm^2 UVB, Masson staining) was determined as 0.96. Also, in the assay with collagen fiber (UVA + UVB, vs negative control), the “Collagen fiber Increase Rate” value is reported as 50.00%. Further, the “Hyaluronic acid Relative IOD Mean” value in the assay on hyaluronic acid (30 J/cm^2 UVA + 50 mJ/cm^2 UVB, IF) is 0.69. Besides, in the assay on hyaluronic acid (UVA + UVB, vs negative control), the “Hyaluronic acid Increase Rate” value is given as 56.82%. Moreover, the “Elastin Relative IOD Mean” value in the assay with elastin (30 J/cm^2 UVA + 50 mJ/cm^2 UVB, Victoria staining) was determined as 1.19. Besides, the “Elastin Increase Rate” value in the assay on elastin (UVA + UVB, vs negative control) came out at 260.61%. Further, the “Type III collagen Relative IOD Mean” value in the assay on type III collagen (setting [3]) was 0.76. Also, the “Type III collagen Increase Rate” value with type III collagen (UVA + UVB, vs negative control) came out at 28.81%. In addition, the “Type IV collagen Relative IOD/area Mean” value in the assay with type IV collagen (setting [3]) worked out at 0.76. In addition, the “Type IV collagen Increase Rate” value in the assay with type IV collagen (UVA + UVB, vs negative control) was 26.67%. For the same compound, in the assay on type XVII collagen (setting [3]), the “Type XVII collagen Relative IOD Mean” value stood at 0.69. Moreover, in the assay with type XVII collagen (UVA + UVB, vs negative control), the “Type XVII collagen Increase Rate” value is 176.00%.

As to `Cc1cccc(Nc2cc(Cl)nc(SCC(=O)O)n2)c1C` [WY14643], the Sunburn cells in assay [1] is reported as 3.

For `O=C(O)c1ccccc1O` [salicylic acid], the “Protein Concentration Mean (exfoliated keratinocytes)” value with suckling pig skin (setting [2]) was determined as 0.347 mg/mL; with suckling pig skin (BC 0.326, PC 10% salicylic acid), 0.555 mg/mL.
